System: isolated stratum corneum (SC)
Test: Moisturizing potential on isolated stratum corneum by measurement with a Corneometer (dielectric capacitance)
Settings: for Mean DHCMi corr. active agent: vehicle-corrected; for Dielectric capacitance of the stratum corneum / moisturizing effect in comparison with glycerol at the same concentration: 5% by weight, result in words
Method: B): Evaluation of the Moisturizing Potential on Isolated Stratum Corneum by Measurement with a Corneometer
A test was performed to evaluate the moisturizing potential of the compounds of the invention formulated in an aqueous solution to an amount of 5% by weight relative to the total weight of the composition.
The technique makes it possible to measure the dielectric capacitance of stratum corneum (SC), which depends on the mean dielectric permittivity value of the tissue. The dielectric permittivity varies greatly with the amount of water contained in the SC.
The SC samples are conditioned at 75% relative humidity and at 25° C. before/during the measurements and the treatment. The capacitance measurement is performed using a Corneometer™ (Courage & Khazaka, Germany).
The test compound, compound 2 according to the invention or a moisturizing active agent such as glycerol, is dissolved in a water/n-propanol mixture (80/20) and the solution is deposited onto the SC at a rate of 10 μl/cm^2 followed by air-drying for a total duration of 1 hour 30 minutes.
Measurement is taken at T0, before the treatment, and a measurement Ttreat is taken after total drying of the treatment.
Each treatment is systematically compared with its control (vehicle) and with its T0.
Using at least two different batches of SC, four to five SC samples are measured per treatment.
The variation in the corneometer signal (HCM) after treatment is calculated first for each SC sample: DHCMi=HCMi(Ttreat)−HCMi(T0). The mean of the DHCMi(vehicle) variations is then calculated for the control samples (treated with the vehicle); this mean value is subtracted from all the DHCMi(active agent) variations to correct the systematic bias.
The following is measured for each sample i: • For the vehicle (control): DHCMi(veh)=HCMiveh(Ttreat)−HCMiveh(T0) • For the active agent: DHCMiactive agent=HCMiactive agent(Ttreat)−HCMiactive agent(T0)
To correct the systematic bias associated with the vehicle, the corrected value DHCMicorr. active agent is considered for the active agent according to: DHCMicorr. active agent−DHCMiactive agent−M
in which M corresponds to the mean of the DHCMi(veh) variations observed on the n control samples:
The mean DHCMi corr. active agent values, and also the associated standard deviations that were obtained, are reported in the table below for compound 2 tested at 5%, in comparison with glycerol at 5%: […]

[1] = 5% by weight in water/n-propanol mixture (80/20), 10 μl/cm2 on SC, 75% RH, 25° C., table for compound 2 vs glycerol
[2] = 5% by weight in water/n-propanol mixture, table for compounds 13 and 14 vs glycerol

SMILES | Mean DHCMi corr. active agent [1] | Dielectric capacitance of the stratum corneum / moisturizing effect in comparison with glycerol at the same concentration | Mean DHCMi corr. active agent [2]
C[N+](C)(CCO)CCO.[Cl-] [Compound 2] | 25.9 | much better | 
CC(O)C(=O)[O-].C[N+](C)(CCO)CCO [Compound 13] |  | better | 14
OCC(O)CO [Glycerol, glycerol, reference compound] | 13.8 |  | 11
